# Data published in PMC6478789, “A chemical toolbox for the study of bromodomains and epigenetic signaling” (Nature Communications, 2019).
# Where two headings read alike, the source gives them in different places.
# Assays:
# TRIM24 = target: T1, TRIM24 (Homo sapiens, UniProt O15164); experiment: BROMOscan ligand-binding assay
# T1 sequence (O15164 899-1004 limits assumed): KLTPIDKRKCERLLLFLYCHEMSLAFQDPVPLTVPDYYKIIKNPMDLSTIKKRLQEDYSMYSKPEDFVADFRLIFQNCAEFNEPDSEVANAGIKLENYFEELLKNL
# Excerpt: (§3) BROMOscan is a binding assay based on the well-known KINOMEscan technology. This assay measures the binding of a DNA-tagged bromodomain to an immobilized BRD ligand. If an inhibitor is present, it will compete with the bromodomain binding to the immobilized ligand, resulting in reduction of a quantitative PCR (qPCR) signal in a dose-dependent manner.
# SMARCA2(iso.A) = SMARCA2(iso.A) (Homo sapiens, UniProt P51531); experiment: BROMOscan ligand-binding assay
# Sequence of SMARCA2(iso.A) (P51531 1378-1506 limits assumed): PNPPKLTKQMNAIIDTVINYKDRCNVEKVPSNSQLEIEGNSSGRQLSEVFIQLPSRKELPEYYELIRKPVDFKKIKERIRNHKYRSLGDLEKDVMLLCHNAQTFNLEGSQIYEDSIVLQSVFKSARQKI
# Excerpt: as §3
# SMARCA4 = SMARCA4 (Homo sapiens, UniProt P51532); experiment: BROMOscan ligand-binding assay
# Sequence of SMARCA4 (P51532 1453-1564 limits assumed): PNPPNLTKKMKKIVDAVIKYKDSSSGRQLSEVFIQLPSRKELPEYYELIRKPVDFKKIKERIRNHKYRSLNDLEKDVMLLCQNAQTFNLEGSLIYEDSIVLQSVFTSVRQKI
# Excerpt: as §3
# DAPK3 = target: T2, DAPK3 (Homo sapiens, UniProt O43293); experiment: Temperature shift assay (protein kinases); type: binding; conditions: 10 μM probe; average of three measurements
# T2 construct: Recombinant protein domains (bromodomain or kinases) at a concentration of 2 μM
# Procedure: (§1) Temperature shift assays have been described by Fedorov et al.[46]. Recombinant protein domains (bromodomain or kinases) at a concentration of 2 μM in 10 mM HEPES, pH 7.5, and 500 mM NaCl were mixed with 10 μM of chemical probes. Temperature-dependent protein unfolding profiles were measured using a Real-Time PCR Mx3005p machine (Stratagene).
# STK3 = target: T3, STK3 (Homo sapiens, UniProt Q13188); experiment: Temperature shift assay (protein kinases); type: binding; conditions: 10 μM probe; average of three measurements
# T3 construct: Recombinant protein domains (bromodomain or kinases) at a concentration of 2 μM
# T3 sequence (Q13188 27-278 limits assumed): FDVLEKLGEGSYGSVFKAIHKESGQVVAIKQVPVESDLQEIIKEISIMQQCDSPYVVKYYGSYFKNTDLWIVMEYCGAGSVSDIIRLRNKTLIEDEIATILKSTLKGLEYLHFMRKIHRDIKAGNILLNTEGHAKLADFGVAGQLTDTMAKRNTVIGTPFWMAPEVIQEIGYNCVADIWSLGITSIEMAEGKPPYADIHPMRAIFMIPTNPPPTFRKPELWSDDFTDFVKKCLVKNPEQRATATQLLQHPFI
# Procedure: as §1
# PHGK2 = target: T4, PHGK2 (Homo sapiens, UniProt P15735); experiment: Temperature shift assay (protein kinases); type: binding; conditions: 10 μM probe; average of three measurements
# T4 construct: Recombinant protein domains (bromodomain or kinases) at a concentration of 2 μM
# T4 sequence (P15735 24-291 limits assumed): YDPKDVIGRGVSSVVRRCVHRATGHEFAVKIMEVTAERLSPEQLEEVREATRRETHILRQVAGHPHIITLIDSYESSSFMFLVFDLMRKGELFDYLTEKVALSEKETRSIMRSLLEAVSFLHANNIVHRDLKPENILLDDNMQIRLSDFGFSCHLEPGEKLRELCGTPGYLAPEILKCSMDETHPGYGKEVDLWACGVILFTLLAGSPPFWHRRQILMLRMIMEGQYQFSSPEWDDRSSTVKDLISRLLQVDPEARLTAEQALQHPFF
# Procedure: as §1
# BMX = target: T5, BMX (Homo sapiens, UniProt P51813); experiment: Temperature shift assay (protein kinases); type: binding; conditions: 10 μM probe; average of three measurements
# T5 construct: Recombinant protein domains (bromodomain or kinases) at a concentration of 2 μM
# Procedure: as §1
# GPRK5 = target: T6, GPRK5 (Homo sapiens, UniProt P34947); experiment: Temperature shift assay (protein kinases); type: binding; conditions: 10 μM probe; average of three measurements
# T6 construct: Recombinant protein domains (bromodomain or kinases) at a concentration of 2 μM
# T6 sequence (P34947 186-448 limits assumed, species assumed): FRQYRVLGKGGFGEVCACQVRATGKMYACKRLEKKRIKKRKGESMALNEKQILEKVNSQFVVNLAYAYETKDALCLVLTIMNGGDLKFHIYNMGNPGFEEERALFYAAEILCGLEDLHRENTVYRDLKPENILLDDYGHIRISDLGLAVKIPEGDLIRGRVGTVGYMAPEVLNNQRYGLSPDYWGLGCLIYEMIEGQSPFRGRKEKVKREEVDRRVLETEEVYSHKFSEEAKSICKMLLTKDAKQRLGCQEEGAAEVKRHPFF
# Procedure: as §1
# PAK4 = target: T7, PAK4 (Homo sapiens, UniProt O96013); experiment: Temperature shift assay (protein kinases); type: binding; conditions: 10 μM probe; average of three measurements
# T7 construct: Recombinant protein domains (bromodomain or kinases) at a concentration of 2 μM
# Procedure: as §1
# DYRK1A = target: T8, DYRK1A (Homo sapiens, UniProt Q13627); experiment: Temperature shift assay (protein kinases); type: binding; conditions: 10 μM probe; average of three measurements
# T8 construct: Recombinant protein domains (bromodomain or kinases) at a concentration of 2 μM
# Procedure: as §1
# MERTK = target: T9, MERTK (Homo sapiens, UniProt Q12866); experiment: Temperature shift assay (protein kinases); type: binding; conditions: 10 μM probe; average of three measurements
# T9 construct: Recombinant protein domains (bromodomain or kinases) at a concentration of 2 μM
# T9 sequence (Q12866 587-858 limits assumed): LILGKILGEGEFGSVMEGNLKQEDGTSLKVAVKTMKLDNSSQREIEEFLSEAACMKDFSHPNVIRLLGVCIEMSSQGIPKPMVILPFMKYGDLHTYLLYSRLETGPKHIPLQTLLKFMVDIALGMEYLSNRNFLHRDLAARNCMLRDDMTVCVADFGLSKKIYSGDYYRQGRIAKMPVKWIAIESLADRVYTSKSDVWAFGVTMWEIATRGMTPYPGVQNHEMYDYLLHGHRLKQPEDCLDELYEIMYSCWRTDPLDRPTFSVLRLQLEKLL
# Procedure: as §1
# PIM1 = target: T10, PIM1 (Homo sapiens, UniProt P11309); experiment: Temperature shift assay (protein kinases); type: binding; conditions: 10 μM probe; average of three measurements
# T10 construct: Recombinant protein domains (bromodomain or kinases) at a concentration of 2 μM
# T10 sequence (P11309 38-290 limits assumed, species assumed): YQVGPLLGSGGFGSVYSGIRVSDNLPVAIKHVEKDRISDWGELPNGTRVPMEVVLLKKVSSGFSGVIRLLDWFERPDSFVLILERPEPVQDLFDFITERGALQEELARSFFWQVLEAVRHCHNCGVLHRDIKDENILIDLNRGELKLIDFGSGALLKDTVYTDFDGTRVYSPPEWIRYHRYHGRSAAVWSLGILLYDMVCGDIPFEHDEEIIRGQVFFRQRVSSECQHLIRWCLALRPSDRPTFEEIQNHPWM
# Procedure: as §1
# RPS6KA1 = experiment: Temperature shift assay (protein kinases); type: binding; conditions: 10 μM probe; average of three measurements
# Procedure: as §1
# CAMK1G = target: T11, CAMK1G (Homo sapiens, UniProt Q96NX5); experiment: Temperature shift assay (protein kinases); type: binding; conditions: 10 μM probe; average of three measurements
# T11 construct: Recombinant protein domains (bromodomain or kinases) at a concentration of 2 μM
# T11 sequence (Q96NX5 23-277 limits assumed, species assumed): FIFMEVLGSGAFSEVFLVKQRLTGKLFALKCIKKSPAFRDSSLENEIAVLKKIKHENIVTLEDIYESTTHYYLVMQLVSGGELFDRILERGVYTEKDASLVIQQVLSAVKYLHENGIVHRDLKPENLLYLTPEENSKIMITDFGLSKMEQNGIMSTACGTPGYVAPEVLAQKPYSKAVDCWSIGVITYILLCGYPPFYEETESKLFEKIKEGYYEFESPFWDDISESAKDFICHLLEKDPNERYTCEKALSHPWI
# Procedure: as §1
# GSG2 = target: T12, GSG2 (Homo sapiens, UniProt Q8TF76); experiment: Temperature shift assay (protein kinases); type: binding; conditions: 10 μM probe; average of three measurements
# T12 construct: Recombinant protein domains (bromodomain or kinases) at a concentration of 2 μM
# T12 sequence (Q8TF76 484-798 limits assumed): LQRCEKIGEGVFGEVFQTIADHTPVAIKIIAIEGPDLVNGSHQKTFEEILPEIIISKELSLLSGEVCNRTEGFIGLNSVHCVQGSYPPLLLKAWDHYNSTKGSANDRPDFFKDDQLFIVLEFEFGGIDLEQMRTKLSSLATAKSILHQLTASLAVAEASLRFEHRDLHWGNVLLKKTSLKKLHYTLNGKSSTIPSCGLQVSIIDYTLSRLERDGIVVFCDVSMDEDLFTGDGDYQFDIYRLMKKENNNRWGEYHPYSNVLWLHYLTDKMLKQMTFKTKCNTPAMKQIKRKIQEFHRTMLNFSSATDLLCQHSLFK
# Procedure: as §1
# MAPK8 = target: T13, MAPK8 (Homo sapiens, UniProt P45983); experiment: Temperature shift assay (protein kinases); type: binding; conditions: 10 μM probe; average of three measurements
# T13 construct: Recombinant protein domains (bromodomain or kinases) at a concentration of 2 μM
# T13 sequence (P45983 26-321 limits assumed, species assumed): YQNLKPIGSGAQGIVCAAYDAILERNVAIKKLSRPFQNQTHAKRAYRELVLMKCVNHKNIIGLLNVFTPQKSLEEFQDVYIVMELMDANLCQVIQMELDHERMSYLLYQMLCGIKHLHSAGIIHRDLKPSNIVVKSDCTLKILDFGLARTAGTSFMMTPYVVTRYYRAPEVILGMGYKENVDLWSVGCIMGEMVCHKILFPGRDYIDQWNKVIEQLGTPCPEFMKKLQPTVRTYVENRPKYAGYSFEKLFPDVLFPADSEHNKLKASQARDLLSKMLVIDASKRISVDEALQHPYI
# Procedure: as §1
# SMYD2 = target: T14, SMYD2 (Homo sapiens, UniProt Q9NRG4); experiment: Methyl transferase scintillation proximity assay; type: biochemical; conditions: average of two measurements, read-out: MTases Inhibition (%)
# T14 construct: purchased DiscoverX BROMOscan (bromodomains); SGC in-house methyltransferase panel
# T14 sequence (Q9NRG4 whole entry): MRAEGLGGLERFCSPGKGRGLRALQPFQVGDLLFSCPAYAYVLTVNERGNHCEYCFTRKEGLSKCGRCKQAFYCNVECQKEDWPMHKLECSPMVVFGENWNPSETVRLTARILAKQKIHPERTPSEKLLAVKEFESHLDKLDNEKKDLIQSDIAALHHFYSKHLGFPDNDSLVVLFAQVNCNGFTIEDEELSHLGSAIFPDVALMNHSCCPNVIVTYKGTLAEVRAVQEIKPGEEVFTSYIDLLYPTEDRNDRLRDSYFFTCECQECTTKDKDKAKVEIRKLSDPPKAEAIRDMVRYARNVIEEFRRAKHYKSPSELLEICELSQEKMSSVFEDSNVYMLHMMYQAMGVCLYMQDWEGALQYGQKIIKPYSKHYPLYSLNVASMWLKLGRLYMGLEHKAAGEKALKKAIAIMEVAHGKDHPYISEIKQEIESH
# Method in brief: (§2)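 ^3H-SAM + biotinylated substrate, both ~apparent Km per enzyme. Quench: 7.5 M guanidine HCl; dilute in 20 mM Tris pH 8.0; FlashPlate capture 1 h; read CPM. No-compound = 100%, no-enzyme = 0% activity.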
# MLL3 (pentameric) = target: T15, MLL3 (pentameric) (Homo sapiens, UniProt Q8NEZ4); experiment: Methyl transferase scintillation proximity assay; type: biochemical; conditions: average of two measurements, read-out: MTases Inhibition (%)
# T15 construct: purchased DiscoverX BROMOscan (bromodomains); SGC in-house methyltransferase panel
# Method in brief: as §2
# SUV420H2 = target: T16, SUV420H2 (Homo sapiens, UniProt Q86Y97); experiment: Methyl transferase scintillation proximity assay; type: biochemical; conditions: average of two measurements, read-out: MTases Inhibition (%)
# T16 construct: purchased DiscoverX BROMOscan (bromodomains); SGC in-house methyltransferase panel
# T16 sequence (Q86Y97 whole entry): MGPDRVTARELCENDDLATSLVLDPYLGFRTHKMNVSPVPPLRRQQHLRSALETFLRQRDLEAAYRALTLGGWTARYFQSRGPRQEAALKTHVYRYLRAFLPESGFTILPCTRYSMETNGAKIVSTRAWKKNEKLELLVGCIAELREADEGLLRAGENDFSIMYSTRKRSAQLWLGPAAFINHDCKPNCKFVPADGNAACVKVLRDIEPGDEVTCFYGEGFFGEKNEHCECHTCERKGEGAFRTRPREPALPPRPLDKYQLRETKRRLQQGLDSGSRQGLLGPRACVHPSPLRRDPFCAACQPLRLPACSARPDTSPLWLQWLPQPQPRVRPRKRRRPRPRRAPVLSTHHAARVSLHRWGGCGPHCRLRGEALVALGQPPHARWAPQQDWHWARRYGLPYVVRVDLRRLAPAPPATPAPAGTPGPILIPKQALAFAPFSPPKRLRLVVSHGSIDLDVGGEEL
# Method in brief: as §2
# SETD2 = target: T17, SETD2 (Homo sapiens, UniProt Q9BYW2); experiment: Methyl transferase scintillation proximity assay; type: biochemical; conditions: average of two measurements, read-out: MTases Inhibition (%)
# T17 construct: purchased DiscoverX BROMOscan (bromodomains); SGC in-house methyltransferase panel
# T17 sequence (Q9BYW2 whole entry): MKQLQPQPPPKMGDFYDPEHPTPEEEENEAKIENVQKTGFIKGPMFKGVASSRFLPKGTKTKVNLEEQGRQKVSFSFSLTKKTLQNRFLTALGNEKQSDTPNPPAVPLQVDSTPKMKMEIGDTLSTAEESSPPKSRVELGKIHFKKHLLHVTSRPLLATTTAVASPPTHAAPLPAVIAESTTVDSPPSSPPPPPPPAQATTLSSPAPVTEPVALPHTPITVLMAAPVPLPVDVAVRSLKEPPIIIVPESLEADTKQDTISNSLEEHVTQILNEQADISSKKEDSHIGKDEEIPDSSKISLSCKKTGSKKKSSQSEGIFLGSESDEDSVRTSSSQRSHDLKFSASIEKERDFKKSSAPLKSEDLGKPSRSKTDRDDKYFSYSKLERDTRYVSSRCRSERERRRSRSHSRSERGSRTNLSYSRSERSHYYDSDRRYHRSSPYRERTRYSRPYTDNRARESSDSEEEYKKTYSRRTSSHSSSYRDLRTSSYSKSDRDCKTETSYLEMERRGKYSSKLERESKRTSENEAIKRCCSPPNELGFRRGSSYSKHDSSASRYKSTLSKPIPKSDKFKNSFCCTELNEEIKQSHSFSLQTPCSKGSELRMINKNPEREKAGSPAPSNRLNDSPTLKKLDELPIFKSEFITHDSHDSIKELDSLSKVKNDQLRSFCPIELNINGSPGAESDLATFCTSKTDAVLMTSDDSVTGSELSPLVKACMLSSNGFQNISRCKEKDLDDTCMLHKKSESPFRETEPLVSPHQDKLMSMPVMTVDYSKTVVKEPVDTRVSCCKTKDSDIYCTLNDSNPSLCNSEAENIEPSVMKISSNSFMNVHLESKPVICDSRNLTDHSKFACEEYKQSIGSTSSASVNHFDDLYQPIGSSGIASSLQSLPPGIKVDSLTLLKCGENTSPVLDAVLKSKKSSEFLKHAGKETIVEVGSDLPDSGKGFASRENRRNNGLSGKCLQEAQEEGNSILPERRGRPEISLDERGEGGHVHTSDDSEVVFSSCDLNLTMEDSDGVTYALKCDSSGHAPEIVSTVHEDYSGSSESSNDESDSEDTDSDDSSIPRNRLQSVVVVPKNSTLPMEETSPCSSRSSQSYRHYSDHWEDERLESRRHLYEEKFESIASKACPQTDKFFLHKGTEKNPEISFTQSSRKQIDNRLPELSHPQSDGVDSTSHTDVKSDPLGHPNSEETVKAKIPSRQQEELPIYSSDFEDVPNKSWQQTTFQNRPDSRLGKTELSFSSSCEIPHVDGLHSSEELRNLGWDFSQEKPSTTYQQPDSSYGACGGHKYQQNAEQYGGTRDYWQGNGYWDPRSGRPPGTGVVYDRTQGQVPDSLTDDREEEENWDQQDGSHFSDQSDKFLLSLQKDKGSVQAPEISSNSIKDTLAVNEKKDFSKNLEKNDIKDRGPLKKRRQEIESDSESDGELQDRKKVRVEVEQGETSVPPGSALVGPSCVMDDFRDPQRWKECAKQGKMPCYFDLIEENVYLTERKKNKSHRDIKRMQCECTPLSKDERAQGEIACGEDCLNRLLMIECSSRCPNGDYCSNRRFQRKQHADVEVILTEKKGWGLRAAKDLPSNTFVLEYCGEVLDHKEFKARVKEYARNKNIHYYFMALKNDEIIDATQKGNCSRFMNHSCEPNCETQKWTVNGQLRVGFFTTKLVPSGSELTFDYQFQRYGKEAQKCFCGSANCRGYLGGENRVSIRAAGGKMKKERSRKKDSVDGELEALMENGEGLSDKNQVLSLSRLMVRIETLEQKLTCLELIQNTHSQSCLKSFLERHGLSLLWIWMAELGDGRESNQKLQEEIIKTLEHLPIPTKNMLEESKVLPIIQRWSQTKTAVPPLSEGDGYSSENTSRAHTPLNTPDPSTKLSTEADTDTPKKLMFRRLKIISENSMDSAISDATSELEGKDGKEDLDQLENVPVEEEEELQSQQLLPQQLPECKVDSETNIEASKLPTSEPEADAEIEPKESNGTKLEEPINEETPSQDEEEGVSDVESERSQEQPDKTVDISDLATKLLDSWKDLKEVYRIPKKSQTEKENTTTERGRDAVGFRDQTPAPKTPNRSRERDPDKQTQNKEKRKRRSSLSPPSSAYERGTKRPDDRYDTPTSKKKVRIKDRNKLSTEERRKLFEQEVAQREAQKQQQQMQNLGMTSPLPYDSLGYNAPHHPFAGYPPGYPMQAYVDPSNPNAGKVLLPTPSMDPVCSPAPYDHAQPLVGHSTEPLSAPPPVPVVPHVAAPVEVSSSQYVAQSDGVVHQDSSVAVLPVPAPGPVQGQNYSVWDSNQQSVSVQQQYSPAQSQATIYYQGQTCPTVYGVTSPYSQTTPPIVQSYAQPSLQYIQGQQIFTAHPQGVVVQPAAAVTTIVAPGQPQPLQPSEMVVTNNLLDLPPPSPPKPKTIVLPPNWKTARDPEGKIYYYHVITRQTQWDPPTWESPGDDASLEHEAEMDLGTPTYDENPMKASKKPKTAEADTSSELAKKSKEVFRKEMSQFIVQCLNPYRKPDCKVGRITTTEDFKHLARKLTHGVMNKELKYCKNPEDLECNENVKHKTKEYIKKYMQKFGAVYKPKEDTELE
# Method in brief: as §2
# [1] = KD (BROMOscan), sheet prints no unit (nM)
structure (smiles),measurement,setting,value
CCCS(=O)(=O)c1nc(NC2CC2)cc(-c2ccc3c(ccn3C3CC(C)(C)NC(C)(C)C3)c2)n1 [NVS-CECR2-1],Kd,TRIM24,> 30 µM
O=C(O)c1ccccc1O [Salicylic Acid],Kd,"SMARCA2(iso.A); KD, SMARCA2(iso.A)",950000 nM
same,Kd,"SMARCA4; KD, SMARCA4",320000 nM
same,Kd,"TRIM24; KD, TRIM24(Bromo.)",> 14000 µM
Cc1cc2c(cc1N1C(=O)c3cccc4c(CCCO)ccc(c34)C1=O)n(C)c(=O)n2C [BAY-299],Temperature shift,DAPK3,-0.2 Kelvin
same,Temperature shift,STK3,0.1 Kelvin
same,Temperature shift,PHGK2,0.0 Kelvin
same,Temperature shift,BMX,0.3 Kelvin
same,Temperature shift,GPRK5,-0.3 Kelvin
same,Temperature shift,PAK4,-0.1 Kelvin
same,Temperature shift,DYRK1A,-0.5 Kelvin
same,Temperature shift,MERTK,-0.2 Kelvin
same,Temperature shift,PIM1,-0.2 Kelvin
same,Temperature shift,RPS6KA1,0.1 Kelvin
same,Temperature shift,CAMK1G,-0.6 Kelvin
same,Temperature shift,GSG2,0.1 Kelvin
same,Temperature shift,MAPK8,-0.4 Kelvin
CCCOc1ccn2c(C(C)=O)cc(-c3ccccc3S(C)(=O)=O)c2c1 [GSK2801],Kd,SMARCA2(iso.A); [1],> 30000 nM
same,Kd,"SMARCA2(iso.A); KD, BROMOscan Gene Symbol SMARCA2(iso.A)",> 100000 nM
same,Kd,SMARCA4; [1],> 30000 nM
same,Kd,"SMARCA4; KD, BROMOscan Gene Symbol SMARCA4",> 100000 nM
same,Kd,"TRIM24; KD, BROMOscan Gene Symbol TRIM24(Bromo.)",24 µM
CN1C[C@H](Nc2cnn(C)c(=O)c2Br)C[C@H](c2ccccc2)C1 [GSK4027],inhibition at 10 µM,SMYD2,2%
same,inhibition at 10 µM,MLL3 (pentameric),2%
same,inhibition at 10 µM,SUV420H2,-1%
same,inhibition at 10 µM,SETD2,-1%
COc1cc(C#N)ccc1S(=O)(=O)Nc1ccc2c(c1)cc(C)c(=O)n2C [NI 57],Kd,SMARCA4; SMARCA4,41000 nM
same,Kd,TRIM24; TRIM24(Bromo.),1.6 µM
COc1cc(Cl)c(C(=O)N[C@@H](CN[C@H]2CC[C@@H](N)CC2)Cc2ccc(C#N)cc2)cc1-c1ccc(CN[C@H](C)c2ccc(C)cc2)o1 [BAY-850],inhibition at 10 µM,SMYD2,19%
same,inhibition at 10 µM,MLL3 (pentameric),0%
same,inhibition at 10 µM,SUV420H2,0%
same,inhibition at 10 µM,SETD2,7%
CCC(=O)N1CCOc2c(cc(-c3ccc(OC)c(OC)c3)cc2OCC2CCCN(C)C2)C1 (stereo not drawn) [I-CBP112],Kd,SMARCA2(iso.A); [1],> 30000 nM
same,Kd,"SMARCA2(iso.A); KD, SMARCA2(iso.A)",> 100000 nM
same,Temperature shift,DAPK3,0.0 Kelvin
same,Temperature shift,STK3,0.0 Kelvin
same,Temperature shift,PHGK2,0.1 Kelvin
same,Temperature shift,BMX,-0.1 Kelvin
same,Temperature shift,GPRK5,-0.4 Kelvin
same,Temperature shift,PAK4,-0.2 Kelvin
same,Temperature shift,DYRK1A,-0.4 Kelvin
same,Temperature shift,MERTK,-0.2 Kelvin
same,Temperature shift,PIM1,-0.1 Kelvin
same,Temperature shift,RPS6KA1,0.1 Kelvin
same,Temperature shift,CAMK1G,-0.2 Kelvin
same,Temperature shift,GSG2,0.1 Kelvin
same,Temperature shift,MAPK8,0.3 Kelvin
same,Kd,SMARCA4; [1],> 30000 nM
same,Kd,"SMARCA4; KD, SMARCA4",> 100000 nM
same,Kd,"TRIM24; KD, TRIM24(Bromo.)",12 µM
CN(C)CCCOc1ccc(-c2cc(NCCCn3cccn3)nc(S(C)(=O)=O)n2)cc1 [TP-238],inhibition at 10 µM,SMYD2,-2%
same,inhibition at 10 µM,MLL3 (pentameric),-3%
same,inhibition at 10 µM,SUV420H2,0%
same,inhibition at 10 µM,SETD2,19%
